Experimental data as given in publication PMC8175350, “Drug repurposing screens identify chemical entities for the development of COVID-19 interventions” (Nature Communications, 2021).
Read-outs that look alike come from different tables or passages of the source.

What was measured:
SARS-CoV-2 [1] = test: microbe, parasite or virus in culture; type: cell-based; settings: for Emax: Severe acute respiratory syndrome coronavirus 2, HeLa-ACE2, 24 h, read-out: HeLa-ACE2 CoV-2 Sinf Average; for EC50: read-out: HeLa-ACE2 CoV-2 EC50 GeoMean
[2] = Uninfected HeLa-ACE2 24 h live/dead cytotoxicity counter screen; type: cell-based, human; settings: human, uninfected HeLa-ACE2 cells, read-out: HeLa-ACE2 uninfected cytotoxicity CC50 GeoMean
SARS-CoV-2 [3] = test: microbe, parasite or virus in culture; type: cell-based; settings: for EC50: Severe acute respiratory syndrome coronavirus 2, Calu-3, read-out: Calu-3 CoV-2 EC50 GeoMean
SARS-CoV-2 [4] = test: microbe, parasite or virus in culture; type: cell-based; settings: for Emax: Severe acute respiratory syndrome coronavirus 2, HeLa-ACE2, 10 h, read-out: HeLa-ACE2 TOA CoV-2 Sinf Average; for EC50: read-out: HeLa-ACE2 TOA CoV-2 EC50 GeoMean; for TOA:HeLa-ACE2 EC50 Ratio: TOA EC50 / HeLa-ACE2 SARS-CoV-2 EC50
HeLa-ACE2 cells [5] = test: Total cell count in the HeLa-ACE2 TOA (time of addition) assay; type: cell-based, human; settings: Homo sapiens, HeLa-ACE2; read-out: HeLa-ACE2 TOA cell count EC50 GeoMean
HeLa-ACE2 cells [6] = test: cells; settings: Homo sapiens; for Emax: HeLa-ACE2, 24 h, read-out: HeLa-ACE2 cell count Sinf Average
Calu-3 cells [7] = test: cells; settings: Homo sapiens
[8] = HepG2 72 h CellTiter-Glo cytotoxicity; settings: human, HepG2 cells
HepG2 [9] = test: HepG2 72 h CellTiter-Glo cytotoxicity; settings: 72 h
[10] = HEK293T 72 h CellTiter-Glo cytotoxicity; settings: human, HEK293T cells
HEK293T [11] = test: HEK293T 72 h CellTiter-Glo cytotoxicity; settings: 72 h
[12] = Uninfected Calu-3 48 h Cell-Titer Glo cytotoxicity counter screen; settings: human, uninfected Calu-3 cells, Calu-3 uninfected cytotoxicity CC50 GeoMean
HeLa-ACE2 cells [13] = test: Uninfected HeLa-ACE2 24 h live/dead cytotoxicity counter screen; type: cell-based, human; settings: curve plateau at infinite concentration
HeLa-ACE2 cells [14] = test: cells; type: cell-based, human; settings: Homo sapiens, HeLa-ACE2; read-out: HeLa-ACE2 TOA cell count EC50 GeoMean
in vitro = settings: human, Calu-3 uninfected cytotoxicity CC50 GeoMean
Calu-3 cells [15] = test: Uninfected Calu-3 48 h Cell-Titer Glo cytotoxicity counter screen; settings: curve plateau at infinite concentration
Calu-3 cells [16] = test system: Calu-3 cells
HepG2 [17] = settings: human
HEK293T [18] = settings: human
[19] = Severe acute respiratory syndrome coronavirus 2, HeLa-ACE2
[20] = curve plateau at infinite concentration
[21] = Severe acute respiratory syndrome coronavirus 2, HeLa-ACE2, detail block
[22] = HeLa-ACE2, read-out: HeLa-ACE2 cell count EC50 GeoMean, detail block
[23] = Calu-3, read-out: Calu-3 cell count EC50 GeoMean, detail block

Row | SMILES | Emax (HeLa-ACE2 cells [6]) | HepG2 72-hour cytotoxicity Sinf Average (HepG2 [9]) | HEK293T 72-hour cytotoxicty Sinf Average (HEK293T [11]) | HeLa-ACE2 SI (SARS-CoV-2 [1]) | Emax (SARS-CoV-2 [1]; [20]) | EC50 (SARS-CoV-2 [1]; [21]) | CC50 at 24 h ([2]; detail block) | HeLa-ACE2 uninfected cytotoxicity Sinf Average (HeLa-ACE2 cells [13]) | EC50 (SARS-CoV-2 [3]; detail block) | Emax (SARS-CoV-2 [4]; [20]) | EC50 (SARS-CoV-2 [4]; [21]) | TOA:HeLa-ACE2 EC50 Ratio (SARS-CoV-2 [4]) | EC50 (HeLa-ACE2 cells [14]) | EC50 (HeLa-ACE2 cells [6]; [22]) | EC50 (Calu-3 cells [7]; [23]) | uninfected Calu-3 CC50 (Calu-3 cells [16]) | HepG2 72-hour cytotoxicity Sinf Average (HepG2 [17]; 72 h) | HEK293T 72-hour cytotoxicty Sinf Average (HEK293T [18]; 72 h) | CC50 at 48 h (in vitro) | also measured
1 | Cc1c(-c2ccc(O)cc2)n(Cc2ccc(OCCN3CCCCCC3)cc2)c2ccc(O)cc12 [Bazedoxifene acetate] | 100% | -99% | -106% |  |  |  |  |  |  |  |  |  |  |  |  |  |  |  |  | Emax (SARS-CoV-2 [1]): 100%; EC50 (SARS-CoV-2 [1]; [19]): 2.89 µM; CC50 at 24 h [2]: > 20.7 µM; Emax (SARS-CoV-2 [3]; Severe acute respiratory syndrome coronavirus 2, Calu-3, 48 h, read-out: Calu-3 CoV-2 Sinf Average): 94%; EC50 (SARS-CoV-2 [3]): > 7.73 µM; Emax (SARS-CoV-2 [4]): 100%; EC50 (SARS-CoV-2 [4]; [19]): > 4.47 µM; EC50 (HeLa-ACE2 cells [5]): > 9.59 µM; EC50 (HeLa-ACE2 cells [6]; HeLa-ACE2, read-out: HeLa-ACE2 cell count EC50 GeoMean): > 8.59 µM; EC50 (Calu-3 cells [7]; Calu-3, read-out: Calu-3 cell count EC50 GeoMean): > 9.98 µM; CC50 at 72 h [8]: 3.21 µM; CC50 at 72 h [10]: 9.19 µM; CC50 at 48 h [12]: 10.6 µM
2 | CN1[C@@H]2CC[C@H]1C[C@@H](N1Cc3ccc4ccccc4c3C1=O)C2 [CR-3124] |  | -100% | -100% | > 6.67 | 100% | 5.97 µM | > 39.8 µM | -100% | > 9.98 µM | 100% | > 9.59 µM | 1.607 | > 9.59 µM | > 9.59 µM | > 9.98 µM |  |  |  |  | CC50 (in vitro; detail block): > 29.9 µM; Calu-3 uninfected cytotoxicity Sinf Average (Calu-3 cells [15]): -100%
3 | COc1ccc2cc1Oc1ccc(cc1)C[C@H]1c3c(cc4c(c3Oc3cc5c(cc3OC)CCN(C)[C@@H]5C2)OCO4)CCN1C [Cepharanthine] |  |  |  | > 25.76 | 98% | 0.988 µM | > 25.4 µM | -100% | > 9.98 µM | 100% | > 9.5 µM | 9.613 | > 9.59 µM | > 9.59 µM | > 9.98 µM | > 27.816 ×÷ 1.096 (n=3) μM | -100% | -103% | > 27.8 µM | Calu-3 SI (SARS-CoV-2 [3]): 2.79; Calu-3 uninfected cytotoxicity Sinf Average (Calu-3 cells [16]; human, 48 h): -100%
4 | CCN(CC)CCCC(C)Nc1ccnc2cc(Cl)ccc12 (stereo not drawn) [Chloroquine, DualTPharma, Chloroquine] |  |  |  |  | 107% | 0.9 µM | > 39.8 µM | -100% | > 9.85 µM |  | > 9.59 µM |  | > 9.59 µM | > 9.59 µM | > 9.85 µM |  |  |  |  | HepG2 72-hour cytotoxicity Sinf Average (HepG2 [17]): -100%; HEK293T 72-hour cytotoxicty Sinf Average (HEK293T [18]): -100%
5 | N#Cc1c(N)nc(N)nc1N[C@H](c1nc2c(F)ccc(Cl)c2c(=O)n1-c1cccnc1)C1CC1 [GS-9901] | 100% |  |  | > 8.17 | 100% | 3.81 µM | > 31.1 µM | -100% | > 9.98 µM |  | > 9.59 µM | 2.519 | > 9.59 µM | > 9.59 µM | > 9.98 µM | > 29.867 ×÷ 1.001 (n=3) μM | -100% | -97% | > 29.9 µM | Emax (Calu-3 cells [7]; Calu-3, 48 h, read-out: Calu-3 cell count Sinf Average): -100%
